Values of other authors in patent US20040229855A1, “Antiglucocorticoids for the treatment of postpartum psychosis” (Corcept Therapeutics, Inc., priority 2003, published 2004).

Assays:
glucocorticoid receptor = target: T1, glucocorticoid receptor (Homo sapiens, UniProt P04150); conditions: cited from earlier work
T1 sequence (P04150 1-777): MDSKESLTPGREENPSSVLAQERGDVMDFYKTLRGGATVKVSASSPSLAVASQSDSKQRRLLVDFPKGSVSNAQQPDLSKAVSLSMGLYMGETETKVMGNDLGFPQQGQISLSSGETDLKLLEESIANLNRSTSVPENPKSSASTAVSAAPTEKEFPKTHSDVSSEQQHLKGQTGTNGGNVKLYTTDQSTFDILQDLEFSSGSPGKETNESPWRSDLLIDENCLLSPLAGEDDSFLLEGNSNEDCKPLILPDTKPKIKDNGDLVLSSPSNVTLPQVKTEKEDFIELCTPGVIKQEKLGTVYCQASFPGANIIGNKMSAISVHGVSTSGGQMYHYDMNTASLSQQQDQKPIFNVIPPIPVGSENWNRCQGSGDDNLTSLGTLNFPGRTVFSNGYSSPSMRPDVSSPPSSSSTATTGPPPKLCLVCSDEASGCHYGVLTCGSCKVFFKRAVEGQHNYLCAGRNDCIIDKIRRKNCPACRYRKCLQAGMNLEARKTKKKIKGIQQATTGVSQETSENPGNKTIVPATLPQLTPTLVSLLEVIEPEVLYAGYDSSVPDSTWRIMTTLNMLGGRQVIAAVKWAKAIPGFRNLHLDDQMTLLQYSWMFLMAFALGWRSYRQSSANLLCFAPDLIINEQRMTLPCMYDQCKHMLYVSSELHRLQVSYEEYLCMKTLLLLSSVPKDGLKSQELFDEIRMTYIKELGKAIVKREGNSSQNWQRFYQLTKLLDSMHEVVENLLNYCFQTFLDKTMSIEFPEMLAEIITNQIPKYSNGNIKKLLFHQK

[1] = in one study (Kawai 1989); cited from earlier work
progesterone receptor = target: T2, progesterone receptor (Homo sapiens, UniProt P06401); conditions: cited from earlier work
T2 sequence (P06401 1-933): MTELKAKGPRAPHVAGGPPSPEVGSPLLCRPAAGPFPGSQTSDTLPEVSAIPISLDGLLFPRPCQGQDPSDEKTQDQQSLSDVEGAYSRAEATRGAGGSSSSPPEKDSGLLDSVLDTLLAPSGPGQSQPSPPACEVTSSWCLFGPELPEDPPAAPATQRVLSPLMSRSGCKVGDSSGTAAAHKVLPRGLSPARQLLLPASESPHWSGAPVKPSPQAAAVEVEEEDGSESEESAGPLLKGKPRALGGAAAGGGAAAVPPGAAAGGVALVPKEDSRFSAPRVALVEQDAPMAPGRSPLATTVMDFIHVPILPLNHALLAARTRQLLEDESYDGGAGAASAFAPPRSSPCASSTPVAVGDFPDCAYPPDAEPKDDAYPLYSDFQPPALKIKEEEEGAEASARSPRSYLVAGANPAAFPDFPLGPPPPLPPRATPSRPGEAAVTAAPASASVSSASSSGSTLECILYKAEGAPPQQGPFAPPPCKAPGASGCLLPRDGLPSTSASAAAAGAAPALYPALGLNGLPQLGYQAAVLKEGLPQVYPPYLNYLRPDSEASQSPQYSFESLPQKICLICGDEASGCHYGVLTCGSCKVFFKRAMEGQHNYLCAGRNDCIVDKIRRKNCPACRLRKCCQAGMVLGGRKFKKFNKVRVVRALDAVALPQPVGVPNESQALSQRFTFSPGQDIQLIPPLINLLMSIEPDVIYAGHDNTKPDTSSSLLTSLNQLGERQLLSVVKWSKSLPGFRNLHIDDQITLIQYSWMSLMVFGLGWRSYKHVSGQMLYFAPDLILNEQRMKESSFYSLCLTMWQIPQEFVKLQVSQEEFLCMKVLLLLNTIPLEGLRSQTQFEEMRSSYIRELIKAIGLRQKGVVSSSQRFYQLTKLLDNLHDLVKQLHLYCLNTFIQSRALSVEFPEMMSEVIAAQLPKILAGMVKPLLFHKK

Row | SMILES | glucocorticoid receptor antagonist activity (glucocorticoid receptor) | daily dose excreted in the urine [1] | progesterone receptor antagonist activity (progesterone receptor)
1 | CC#C[C@]1(O)CC[C@H]2[C@@H]3CCC4=CC(=O)CCC4=C3[C@@H](c3ccc(OCCN(C)C)cc3)C[C@@]21C [RU009, 11β-(4-dimethylaminoethoxyphenyl)-17α-propynyl-17β-hydroxy-4,9 estradien-3-one] | glucocorticoid receptor antagonist effects | – | –
2 | CC#C[C@]1(O)CC[C@H]2[C@@H]3CCC4=CC(=O)CCC4=C3[C@@H](c3ccc(N(C)C)cc3)C[C@@]21C [mifepristone, 17-β-hydroxy-11-β-(4-dimethyl-aminophenyl)-17-α-(1-propynyl)-estra-4,9-dien-3-one] | powerful antagonist | less than 0.5% | powerful antagonist
